From patent US12570643B2, “3-aryloxy-3-five-membered heteroaryl propylamine compound, and crystal form and use thereof” (Shanghai Leado Pharmatech Co. Ltd., priority 2019, dated 2026)

Experiments:
[1] = tested on: postoperative pain model in rat; test: Postoperative pain model in rat, mechanical hyperalgesia test; format: in vivo; details: 10 mg/kg intramuscular injection
Protocol: Injection of compound I-1: 36.13 mg of compound I-1 prepared in Example 2 was weighed and added into 3.140 mL of normal saline, and well mixed by vortex;
The solvent of the test compound I-1 was normal saline, the administration dose was 10 mg/kg, and the administration method was intramuscular injection. 36.13 mg of the compound I-1 was weighed and added into 3.140 mL normal saline, and well mixed by vortex. The reference compound used in the experiment was bupivacaine injection, purchased from Shanghai Zhaohui Pharmaceutical Co., Ltd., in a dose of 10 mg/kg via intramuscular injection.
Aseptic operation was performed during surgery, surgical instruments (scissors, forceps, scalpel, surgical cotton, suture thread) were disinfected before the operation. The rats were anesthetized with sodium pentobarbital (50 mg/kg, intraperitoneal injection), and the toes of the rats were squeezed to confirm that the animals were completely anesthetized before the surgery. Ophthalmic ointment was applied to the animal's eyes to prevent the animal's cornea from drying out. Iodophor and 70% ethanol were used to disinfect the skin of the surgery area on the sole of the left hind foot three times, and the surgery was started after the skin was dried. Starting at 0.5 cm from the heel, a 1 cm long incision was made longitudinally toward the toe. After cutting the skin, the flexor digitorum brevis was lifted to make longitudinal blunt injury. After pressing to stop the bleeding, the wound was sutured. The surgical instruments were cleaned and sterilized with hot bead sterilizer. After the surgery, the animals were placed on an electric blanket and injected subcutaneously with 5 mL normal saline to prevent dehydration. When the animal was completely awake (free to move), put the animal back into the cage. […]
The rat was placed alone in a plexiglass box with a grid on the bottom of the box to ensure that the rat's feet can be tested. […] During the test, the animal's rapid foot shrinkage was recorded as a pain response. The animal's foot shrinkage when the test fiber left the animal's skin was also recorded as a pain response. If the animal moved or walked, it would not be recorded as the pain response, the test should be repeated. […] The mechanical hyperalgesia test results are recorded in the table of FIG. 10, in which pain response is indicated with an “x” and no pain response is indicated with an “o.”
Mechanical hyperalgesia was expressed as the paw withdrawal threshold (PWT) in the behavioral test of rats, which was calculated according to the following equation: 50% response threshold (g)=(10(Xf+k))/10,000 • Xf=the final test fiber value used in the test • K=table value (Chaplan et al. 1994, page 62) • □=Average difference 5. […]

[2] = tested on: formalin pain model in mice; test: Formalin pain model in mice; format: in vivo, C57BL/6 mice; details: Mus musculus, ip; intraperitoneal, phase II (10-60 min), dose that halves licking time vs blank control; read-out: analgesic potency ED50 in phase II pain
Excerpt: 150 C57BL/6 mice (male, 9 weeks) were randomly divided into 15 groups with 10 mice for each group, and were used for the analgesic activity test of 3 compounds in the formalin pain model in mice: the compound I-1 group (compound I-1 prepared in Example 2, its hydrochloride was used in the experiment), the S-duloxetine group (its hydrochloride was used in the experiment) and the compound C1 group (compound C1 prepared in Comparative Example 1, its hydrochloride was used in the experiment), respectively. Before the start of the experiment, the mice were allowed to adapt to the experimental environment for 72 hours, during which there was no need to fast for food or water. The tested drugs were administrated by intraperitoneal injection, and the doses were as follows: • The compound I-1 group: blank Vehicle (blank normal saline control), 0.1 mg/kg, 0.5 mg/kg, 1 mg/kg, 5 mg/kg and 10 mg/kg; • The S-duloxetine group: blank Vehicle (blank normal saline control), 1 mg/kg, 5 mg/kg, 10 mg/kg and 20 mg/kg; • The Compound C1 group: blank Vehicle (blank normal saline control), 0.1 mg/kg, 0.5 mg/kg, 1 mg/kg, 5 mg/kg and 10 mg/kg.
After the administration, the mice were placed in a transparent, ventilated plexiglass cylinder, and 1 hour later, 20 μl of 4% formalin solution was injected into the left hind foot plantar of each group of mice with a micro-injector, and foot pain response in mice were recorded in real time with a miniature camera. The length of time of licking the left foot was used as an indicator of pain response, the licking time were observed and recorded during two periods of 0-10 min (phase I) and 10-60 min (phase II) respectively, for statistical analysis, and the half effective dose (ED50) of the 3 compounds were calculated: ED50 refers to the drug dose that reduces the licking time by half compared with the blank control group. The smaller the ED50 value is, the lower the effective analgesic dose of the compound is and the better its analgesic effect is.

[3] = tested on: hot plate induced pain model in rat; test: Hot plate induced pain model in rat; format: in vivo, Sprague-Dawley rats; details: 100 mg/kg intraperitoneal
Protocol: Male, mature and unmated healthy Sprague-Dawley rats were selected, and the temperature of the cold/hot plate (product model: PE34, US IITC) was adjusted to a constant temperature of 53±0.1° C., and rats with painful response such as foot licking, foot shaking or slight jumping within 5-10 s were screened (abandoned those who evaded and jumped). […] The tested compound was freshly formulated on the day of administration. A 0.9% NaCl normal saline solution was prepared as a vehicle, an appropriate amount of the test compound was added to the required volume of normal saline, and the mixture was fully suspended to prepare the drug at a concentration of 1 mg/ml. […] The latency of thermal pain was measured at 0.5 h, 1 h and 2 h after drug administration. To avoid scalding the animals on the hot plate, the maximum latency was set to 30 s. The analgesic effect of each compound was evaluated using the maximum possible effect (MPE), i.e. MPE %=[(Post drug latency-baseline latency)/(30−baseline latency)]×100. Statistics of MPE % at different time points.

SNL model in rat = test: SNL model in rat, mechanical hyperalgesia test; format: in vivo, SD rats; details: 100 mg/kg intragastric, 1 hour after administration; control group 3.967 ± 0.775
Protocol: SD rats were taken for surgery, male, SPF grade, mass 150 g-180 g. The surgical procedure was performed aseptically. The animals were anesthetized with sodium pentobarbital (50 mg/kg, intraperitoneal injection). The surgical area of the waist of animals was shaved, and the skin was disinfected three times with iodophor and 70% ethanol. Start the operation after the skin was dry. A longitudinal incision was made in the posterior part of the sacral bone of the animal's waist with a scalpel to expose the left paravertebral muscles, and the muscle tissue was separated with a distractor to expose the vertebra. The left spinal nerves L5 and L6 were separated, ligated with 6-0 silk thread, and the wounds were sutured. After the surgery, the animals were placed on an electric blanket and injected subcutaneously with 5 mL normal saline to prevent dehydration. When the animal was completely awake (free to move), put the animal back into the cage.
After the surgery, the animals were adapted in the experimental environment for 15 minutes/day for 3 days.
After administration, mechanical hyperalgesia test was performed. The rats were placed individually in a plexiglas box with a grid at the bottom of the box to ensure that the feet of the rats can be tested. Rats would adapt for 15 minutes before the test. […] The rapid paw withdrawal of the animal during the test was recorded as a pain response. The paw withdrawal of the animal when the test fiber left the animal's skin was also recorded as a pain response. If the animal moved or walked, it will not be recorded as a pain response, the test should be repeated. […]
Mechanical hyperalgesia was expressed as the paw withdrawal threshold (PWT) in the behavioral test of rats, which was calculated according to the following equation: 50% response threshold (g)=(10(^Xf+kδ))/10,000 • Xf=the final test fiber value used in the test • K=table value • δ=Average difference
Data were collected using Excel software and analyzed using Prism 6.01 (Graph pad software, Inc.) software.

TRPA1 = molecular target: T1, TRPA1 (Mus musculus, UniProt Q8BLA8); test: TRPA1 inhibitory activity, IonWorks Barracuda (IWB) automatic patch clamp detection; format: cell-based; details: HEK293 cells stably expressing TRPA1, AITC-induced current; read-out: IC50(μM) against TRPA1 in automatic patch clamp detection
T1 construct: expressed in transfected cells; host or cells: HEK293 cells stably expressing TRPA1
T1 sequence (Q8BLA8 whole entry): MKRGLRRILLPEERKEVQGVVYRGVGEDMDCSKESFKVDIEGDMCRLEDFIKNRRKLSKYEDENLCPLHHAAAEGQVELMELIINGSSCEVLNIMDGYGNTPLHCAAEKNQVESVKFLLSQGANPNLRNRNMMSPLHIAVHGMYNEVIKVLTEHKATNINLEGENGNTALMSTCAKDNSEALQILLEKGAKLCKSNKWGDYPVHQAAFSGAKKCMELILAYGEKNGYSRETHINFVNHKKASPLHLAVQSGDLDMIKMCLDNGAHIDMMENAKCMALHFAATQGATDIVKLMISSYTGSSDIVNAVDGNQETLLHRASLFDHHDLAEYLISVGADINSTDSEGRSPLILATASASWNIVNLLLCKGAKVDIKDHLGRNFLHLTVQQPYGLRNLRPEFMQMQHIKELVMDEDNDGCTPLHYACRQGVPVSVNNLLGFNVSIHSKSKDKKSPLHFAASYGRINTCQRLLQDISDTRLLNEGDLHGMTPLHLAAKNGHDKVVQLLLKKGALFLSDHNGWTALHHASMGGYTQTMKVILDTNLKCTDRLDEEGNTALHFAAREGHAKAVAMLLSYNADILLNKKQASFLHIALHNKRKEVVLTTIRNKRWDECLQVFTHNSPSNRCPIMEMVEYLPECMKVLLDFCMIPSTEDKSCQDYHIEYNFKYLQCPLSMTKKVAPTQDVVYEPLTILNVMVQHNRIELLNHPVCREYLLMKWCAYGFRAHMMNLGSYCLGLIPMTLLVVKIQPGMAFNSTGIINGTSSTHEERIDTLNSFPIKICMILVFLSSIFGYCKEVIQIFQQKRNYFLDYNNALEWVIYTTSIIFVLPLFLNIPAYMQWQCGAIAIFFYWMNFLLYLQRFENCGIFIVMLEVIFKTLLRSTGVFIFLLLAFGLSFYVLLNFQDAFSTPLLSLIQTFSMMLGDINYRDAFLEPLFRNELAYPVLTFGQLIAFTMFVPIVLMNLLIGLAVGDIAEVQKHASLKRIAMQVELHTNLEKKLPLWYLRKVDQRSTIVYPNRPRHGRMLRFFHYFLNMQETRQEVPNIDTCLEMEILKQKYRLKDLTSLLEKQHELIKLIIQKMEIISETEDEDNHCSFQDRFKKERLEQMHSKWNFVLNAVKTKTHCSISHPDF
Protocol: In this example, the compounds prepared in some examples of the present invention (shown in Table 1) were tested for their inhibitory activity on the transient receptor potential channel protein TRPA1. Wherein, compound of formula A (WO2010075353) was used as positive control: […]
Test method by using IonWorks Barracuda (IWB) automatic patch clamp detection: HEK293 cells stably expressing TRPA1 were placed in a 37° C., 5% CO2 incubator and incubated with DMEM medium containing 15 μg/mL Blasticidin S HCl, 200 μg/mL Hygromycin B and 10% FBS serum in a T175 culture flask. When the cell density grew to […], the culture medium was removed, the cells were washed with calcium and magnesium free phosphate buffered saline (PBS), and 3 mL of Trypsin was added and digested for 2 minutes, and 7 mL of culture medium was added to terminate the digestion. […]
Data recording and current amplitude measurement and export were completed by IWB Software (version 2.5.3, Molecular Devices Corporation, Union City, CA). The statistics of the well with a sealing impedance lower than 20 M Ω were not recorded. The original current data was corrected by software, the TRPA1 current amplitude was measured in +100 mV. […] The dose-effect curve and IC50 of compounds were fitted and calculated by GraphPad Prism 5.02 (GraphPad Software, San Diego, CA).

[4] = tested on: acetic acid writhing pain model in mice; test: Acetic acid writhing pain model in mice; format: in vivo, ICR mice; details: 10 mg/kg intragastric, acetic acid 1 hour after administration; normal saline group 49 times
Protocol: ICR mice, male, 22-25 g, were fasted for food 2 h before administration, but can have water. All ICR mice were weighed and randomly grouped with the number of animals>10 per group. […] The mice were administered via intragastric administration according to the weight of mice. 1.5% acetic acid solution (0.1 ml/10 g) was intraperitoneally injected at 1 hour after administration, and the number of times of visceral pain in each group within 30 minutes was observed, the mice were counted once when the abdomen was concave, the trunk and hind legs were extended and the hips were elevated, and the number of times of these phenomena occurred within 30 min was finally counted.

## CCCCN1CCCCC1C(=O)Nc1c(C)cccc1C (stereo not drawn) [Bupivacaine, bupivacaine]
[1]; 1 hour after administration, Normal Saline 3.561
  PWT: 11.587 g
[1]; 2 hours after administration, Normal Saline 3.382
  PWT: 4.448 g

## CNCC[C@H](Oc1cccc2ccoc12)c1cccs1 [Compound C1, (S)-3-(benzofuran-7-yloxy)-N-methyl-3-(thiophen-2-yl)propan-1-amine]
[2]
  ED50: 2.22 mg/kg

## NCC1(CC(=O)O)CCCCC1 [Gabapentin, gabapentin]
[3]; 0.5 h
  MPE %: 6.47 ± 5.49%
[3]; 1 h
  MPE %: 14.56 ± 6.18%
[3]; 2 h
  MPE %: 22.66 ± 4.93%
SNL model in rat
  PWT: 6.352 ± 1.897 g

## CNCC[C@@H](Oc1cccc2ccccc12)c1cccs1 [R-Duloxetine, R-duloxetine]
TRPA1
  IC50: 21 to 50 µM

## CN1[C@H]2C[C@H](OC(=O)[C@H](CO)c3ccccc3)C[C@@H]1[C@@H](O)C2 [anisodamine, Anisodamine]
[4]
  number of visceral pains (writhing reactions) within 30 min: 27 times
